{
  "source": "paper PMC7005646",
  "about": "“Overcoming resistance to anabolic SARM therapy in experimental cancer cachexia with an HDAC inhibitor” (EMBO Molecular Medicine, 2020)",
  "key": {"[1]": {"tested_on": "C‐26 tumor‐bearing mice", "experiment": "Confirmatory AR‐42/GTx‐024 combination study (Study 2), male C‐26 tumor‐bearing mice", "format": "in vivo, mouse", "experimental": "(§1) These studies were performed as previously described (Tseng et al, 2015a) with modifications. Tumors were established in the right flank of CD2F1 mice by subcutaneous injection of C‐26 cells (0.5 × 10^6 cells in 0.1 ml). […] TFM‐4AS‐1 (a potent experimental SARM), DHT, and vehicles were administered by subcutaneous injection.\n(§2) This confirmatory study was performed exactly as Study 1 with expanded animal numbers. Tumor‐free control groups were maintained at 6 animals each, whereas 10 animals were included in each of the tumor‐bearing groups. […] Grip strength was measured on study days 0 (baseline) and 16. Due to rapid model progression, this study was terminated on day 17 after only 12 days of treatment.\nForelimb grip strength was measured using Bio‐GS3 Grip Strength Test Meter (Forceleader DBA Bioseb, Pinellas Park, FL). Each mouse was held by the base of its tail and lowered over the apparatus until its forepaws grasped the metal pull bar. The mouse was then gently pulled horizontally in a straight line away from the grip strength meter until the mouse released the bar. The force applied to the bar at the moment of release was recorded as the peak force. Five measurements were taken from each mouse, the average of which was designated as the mouse's grip strength."}, "[2]": {"tested_on": "LLC tumor‐bearing mice", "experiment": "AR‐42/GTx‐024 combination study in the LLC cachexia model (Study 5)", "format": "in vivo, mouse", "conditions": "repeat of Study 5; 10 mg/kg AR‐42, 0.5 mg/kg GTx‐024, or both", "experimental": "This study was performed as previously described (Tseng et al, 2015a) with modifications. Tumors were established in the right hindlimb of male C57BL/6NHsd mice by intramuscular injection of LLC cells (0.5 × 10^6 cells in 0.05 ml). Similar to Study 3, the tumor‐free control group was maintained at six animals, whereas 12 animals were included in each of the tumor‐bearing groups. […] Grip strength, body weight, and food consumption were measured, and tissues were collected as in the previous C‐26 studies."}, "[3]": {"tested_on": "pSTAT3 in C‐26 tumors", "experiment": "Phospho‐STAT3/STAT3 ELISA in C‐26 tumor tissues, Study 2", "format": "in vivo, mouse", "conditions": "Study 2, 10 mg/kg", "experimental": "Expression of phospho‐STAT3 and total STAT3 in C‐26 tumor tissues was measured using commercial sandwich ELISA kits according to the manufacturer's instructions (PathScan® Phospho‐Stat3, #7300, and Total Stat3, #7305, Cell Signaling Technology, Danvers, MA)."}, "[4]": {"experiment": "AR‐42 plasma and tissue pharmacokinetics, single oral dose, tumor‐free CD2F1 mice", "format": "in vivo, mouse", "conditions": "for Plasma exposure: mouse", "experimental": "Pharmacokinetic studies were performed as previously described (Cheng et al, 2016) with the following modifications. Seven week‐old, male, tumor‐free CD2F1 mice (n = 3 per dose and time point) were administered single oral doses of 10, 20, and 50 mg/kg AR‐42 and then sacrificed 0.25, 4, and 24 h later. Fifty milligrams of gastrocnemius muscle tissue was flash‐frozen in 2 ml BeadBlaster™ 24 (MIDSCI; St. Louis, MO) tubes and stored at −80°C. Samples were homogenized for 6 cycles using a BeadBlaster 24 with analytical standards in 1 mL methanol and then centrifuged at 15,600 g (4°C) for 10 min. Supernatants were transferred to glass tubes, dried under nitrogen, and then reconstituted in 200 μl 40% methanol/0.1% formic acid. Plasma preparation and LC‐MS/MS analyses were performed as previously described (Sborov et al, 2017). Mouse plasma and muscle pharmacokinetic parameters were estimated as previously described with the exception of Cavg, which was calculated as AUCall/[dosing interval(h)]."}, "[5]": {"tested_on": "C‐26 tumor‐bearing mice", "experiment": "Initial AR‐42/GTx‐024 combination study (Study 1), male C‐26 tumor‐bearing mice", "format": "in vivo, mouse", "conditions": "Study 1, male, GTx‐024 15 mg/kg, AR‐42 10 mg/kg, or both"}, "[6]": {"set-up": "method as in Sborov et al, 2017", "conditions": "patients; ref Sborov et al, 2017; cited from earlier work"}, "[7]": {"tested_on": "C‐26 tumor‐bearing mice", "experiment": "AR‐42 dose–response study in the C‐26 cachexia model", "format": "in vivo, mouse", "experimental": "as §1\nTherefore the efficacy and associated exposures of reduced doses of AR‐42 were determined. Male CD2F1 mice were stratified by body weight and then randomly assigned into five groups of six animals each. C‐26 tumors were established in four of the groups, while those in the fifth group, serving as tumor‐free controls, were injected with sterile saline. Six days later, animals with palpable tumors were treated with AR‐42 once daily at 10 (n = 5) and 20 mg/kg (n = 6), and every other day at 50 mg/kg (n = 5, the originally described anti‐cachectic dose; Tseng et al, 2015a), or vehicle control (n = 4) for 13 days. Upon sacrifice on study day 18, when the majority of tumor‐bearing control mice met euthanasia criteria, the left gastrocnemius muscle was excised, flash‐frozen in liquid nitrogen, and stored at −80°C for subsequent analyses. Carcass weights were corrected for tumor weight by assuming a tumor density equivalent to water (1 g/cm^3). […] This study was performed as described above with animals treated with AR‐42 once daily at 1, 3, and 10 mg/kg or with vehicle control (n = 8)."}, "[8]": {"tested_on": "serum cytokines", "experiment": "Serum cytokine panel (multiplex), terminal samples from Study 2", "format": "in vivo, mouse", "experimental": "as §2\nSerum cytokine panel analyses were performed by a commercial vendor (Eve Technologies, Calgary, Canada) as previously described (Tseng et al, 2015a). Serum interleukin‐6 (IL‐6) was measured using a commercial ELISA kit (R&D Systems, Minneapolis, MN, USA) according to the manufacturer's instructions."}, "[9]": {"tested_on": "tumor‐free mice", "set-up": "method as in Tseng et al, 2015a", "conditions": "ref Tseng et al, 2015a, cited from earlier work"}, "[10]": {"conditions": "Study 2, AR‐42 10 mg/kg alone or with GTx‐024 15 mg/kg"}, "[11]": {"conditions": "C‐26 Tumor‐bearing, GTx‐024 15 mg/kg, AR‐42 10 mg/kg, or both, mean ± SD"}},
  "data": [
    {"molecule": "CC(C)[C@H](C(=O)Nc1ccc(C(=O)NO)cc1)c1ccccc1", "note": "[AR‐42]", "values": [
      {"measurement": "effect on adipose tissue (epididymal fat pad)", "setting": "[1]; Study 2, 10 mg/kg", "value": "no impact on adipose tissue"},
      {"measurement": "forelimb grip strength over vehicle‐treated tumor‐bearing controls", "setting": "[1]; [10]", "value": "improved grip strength"},
      {"measurement": "gastrocnemius and quadriceps mass relative to GTx‐024 monotherapy", "setting": "[1]; [10]", "value": "significantly improved gastrocnemius and quadriceps mass"},
      {"measurement": "response of body weight and skeletal muscle mass loss", "setting": "[2]", "value": "did not respond"},
      {"measurement": "pSTAT3 signaling within the C‐26 tumors", "setting": "[3]", "value": "did not significantly suppress"},
      {"measurement": "AUCall", "setting": "[4]; 10 mg/kg oral, Muscle", "value": "11,076.7 nM*h"},
      {"measurement": "Cavg", "setting": "[4]; 10 mg/kg oral, Muscle", "value": 461.5, "unit": "nM"},
      {"measurement": "Cmax", "setting": "[4]; 10 mg/kg oral, Muscle", "value": 1.11, "unit": "µM"},
      {"measurement": "AUCall", "setting": "[4]; 10 mg/kg oral, Plasma", "value": "10,931.6 nM*h"},
      {"measurement": "Cmax", "setting": "[4]; 10 mg/kg oral, Plasma", "value": 1.5, "unit": "µM"},
      {"measurement": "Cavg", "setting": "[4]; 10 mg/kg oral, Plasma, AUCall/dosing interval", "value": 455.5, "unit": "nM"},
      {"measurement": "gastrocnemius muscle concentration", "setting": "[4]; 10 mg/kg oral, remained above for 4 h", "value": "above 700 nM"},
      {"measurement": "AUCall", "setting": "[4]; 20 mg/kg oral, Muscle", "value": "36,504.2 nM*h"},
      {"measurement": "Cavg", "setting": "[4]; 20 mg/kg oral, Muscle", "value": "1,521.0 nM"},
      {"measurement": "Cmax", "setting": "[4]; 20 mg/kg oral, Muscle", "value": 3.66, "unit": "µM"},
      {"measurement": "AUCall", "setting": "[4]; 20 mg/kg oral, Plasma", "value": "34,369.3 nM*h"},
      {"measurement": "Cavg", "setting": "[4]; 20 mg/kg oral, Plasma", "value": "1,432.1 nM"},
      {"measurement": "Cmax", "setting": "[4]; 20 mg/kg oral, Plasma", "value": 3.86, "unit": "µM"},
      {"measurement": "AUCall", "setting": "[4]; 50 mg/kg oral, Muscle", "value": "72,624.7 nM*h"},
      {"measurement": "Cavg", "setting": "[4]; 50 mg/kg oral, Muscle", "value": "3,026.2 nM"},
      {"measurement": "Cmax", "setting": "[4]; 50 mg/kg oral, Muscle", "value": 6.37, "unit": "µM"},
      {"measurement": "AUCall", "setting": "[4]; 50 mg/kg oral, Plasma", "value": "74,307.3 nM*h"},
      {"measurement": "Cavg", "setting": "[4]; 50 mg/kg oral, Plasma", "value": "3,096.1 nM"},
      {"measurement": "Cmax", "setting": "[4]; 50 mg/kg oral, Plasma", "value": 7.93, "unit": "µM"},
      {"measurement": "mouse plasma exposure at 50 mg/kg over well‐tolerated human exposure", "setting": "[4]; 74.3 vs 8.5 μM*h", "value": 8.7, "unit": "fold"},
      {"measurement": "Plasma exposure", "setting": "[4]; single oral dose 10 mg/kg", "value": 10.9, "unit": "µM·h"},
      {"measurement": "Plasma exposure", "setting": "[4]; single oral dose 50 mg/kg", "value": 74.3, "unit": "µM·h"},
      {"measurement": "terminal body weight corrected for tumor mass", "setting": "[5]; day 18, 13 days daily oral", "value": "91.2 ± 3.7 % of tumor‐free controls"},
      {"measurement": "terminal gastrocnemius mass", "setting": "[5]; day 18", "value": "94.3 ± 1.4 % of tumor‐free controls"},
      {"measurement": "terminal quadriceps mass", "setting": "[5]; day 18", "value": "93.2 ± 6.3 % of tumor‐free controls"},
      {"measurement": "well‐tolerated plasma exposure in humans", "setting": "[6]", "value": 8.5, "unit": "µM·h"},
      {"measurement": "minimally efficacious dose (anti‐cachectic)", "setting": "[7]; daily oral, 13 days, C‐26 model", "value": 10, "unit": "mg/kg"},
      {"measurement": "effect on C‐26 tumor‐mediated reductions in tumor‐corrected body weight and gastrocnemius mass", "setting": "[7]; lower doses (1, 3 mg/kg daily)", "value": "not effective"},
      {"measurement": "effect on C‐26 tumor‐mediated reductions in tumor‐corrected body weight and gastrocnemius mass", "setting": "[7]; thirteen daily oral doses of 20 or 10 mg/kg", "value": "ameliorated"},
      {"measurement": "GM‐CSF, serum", "setting": "[8]; [11]", "value": "18.70 ± 3.77", "unit": "pg/mL"},
      {"measurement": "G‐CSF, serum", "setting": "[8]; [11]", "value": "2782.18 ± 2191.30", "unit": "pg/mL"},
      {"measurement": "IL‐6, serum", "setting": "[8]; [11]", "value": "256.59 ± 183.1", "unit": "pg/mL"},
      {"measurement": "IL‐17, serum", "setting": "[8]; [11]", "value": "1.82 ± 0.85", "unit": "pg/mL"},
      {"measurement": "IP‐10, serum", "setting": "[8]; [11]", "value": "215.35 ± 52.46", "unit": "pg/mL"},
      {"measurement": "KC, serum", "setting": "[8]; [11]", "value": "363.38 ± 200.65", "unit": "pg/mL"},
      {"measurement": "LIF, serum", "setting": "[8]; [11]", "value": "15.79 ± 5.15", "unit": "pg/mL"},
      {"measurement": "LIX, serum", "setting": "[8]; [11]", "value": "2515.38 ± 3119.67", "unit": "pg/mL"},
      {"measurement": "M‐CSF, serum", "setting": "[8]; [11]", "value": "20.21 ± 4.63", "unit": "pg/mL"},
      {"measurement": "effect on circulating cytokine levels", "setting": "[8]; Study 2, 10 mg/kg monotherapy, tumor‐bearing", "value": "did not significantly reduce circulating levels of any evaluated cytokine"},
      {"measurement": "maximally tolerated dose in mice", "setting": "[9]; oral gavage every other day", "value": 50, "unit": "mg/kg"},
      {"measurement": "effect on lower limb skeletal muscle masses relative to controls", "setting": "[9]; tumor‐free mice, 50 mg/kg every other day", "value": "no significant effects on lower limb skeletal muscle masses"},
      {"measurement": "reduction in epididymal adipose tissue masses", "setting": "[9]; tumor‐free mice, 50 mg/kg oral every other day", "value": "~50", "unit": "%"}
    ]}
  ]
}
